Read-outs that look alike come from different tables or passages of the source.
How the values were obtained:
CB1R = conditions: cited from earlier work
CB1 receptor = conditions: cited from earlier work
GRABeCB2.0 sensor [1] = biological target: T1, GRABeCB2.0 sensor (Homo sapiens, UniProt P21554, S383T, form not given); conditions: increasing concentrations; cited from earlier work
GRABeCB2.0 sensor [2] = biological target: T1, GRABeCB2.0 sensor; format: cell-based; conditions: for Effect on CP55940 fluorescence signal/maximal fluorescence: modulator 1 μM, varying CP55940
Procedure: For reported allosteric modulators, the binding assay was modified to test the ligand for basal activity, followed by the addition of the agonist, similar to the antagonist assay. […] The compound of interest was varied across concentrations ranging (as the case may be) from 1 nM, 3 nM, 10 nM, 30 nM, 100 nM, 300 nM, 1 μM, and 10 μM and performed in triplicate. The concentration of the compound depended on the modulator itself. The concentrations calculated were the final concentration inside the well of the 96-well plate, along with the 1% DMSO and 0.5 mg/mL BSA (See Supplementary Materials, Figure S1).
Statistical Methods: All GRABeCB2.0 fluorescent signals (in cases noted) are expressed as normalized ΔF/F0 as calculated for the fluorescence assay in the PHERAstar FSX Plate reader. EC50/IC50 values were calculated using GraphPad Prism 9 by fitting data to a nonlinear regression model with normalized variable slope (four parameters, normalized where indicated) or using three-parameter response. Data represent mean ± SEM from a minimum of at least three independent experiments performed in triplicates.

GRABeCB2.0 sensor [3] = biological target: T1, GRABeCB2.0 sensor; format: cell-based
Excerpt: (§1) Stable eCB2.0 sensor cell line: A stable sensor cell line was established in HEKtsA201 cells (Sigma-Aldrich, St. Louis, MO, USA) using the PiggyBac Transposon-based system (SBI, Palo Alto, CA, USA). Briefly, the open reading frame of the eCB2.0 sensor from eCB2.0 to C1^20 was cloned into the PB514B shuttle vector using In Fusion cloning (Takara, San Jose, CA, USA). The modified shuttle sequence was obtained with Sanger sequencing (Psomagen, Rockville, MD, USA) and verified (MacVector, Apex, NC, USA). HEKtsA201 cells were maintained in DMEM (Thermo Fisher, Waltham, MA, USA: Gibco #10569-010) supplemented with 10% fetal bovine serum (Gibco #A31605-01) and 1% penicillin/streptomycin (Gibco #15140-122) at 37 °C and 8% CO2. Cells were plated on 12-well tissue culture plates at approximately 50% confluency. This low cell density was used to avoid overgrowth of the cells during the delay between transfection and selection for stable integration. After 3 h, the eCB2.0 shuttle was co-transfected at a plasmid mass ratio of 10:1 with the SBI Transposase vector (PB210PA) using deacylated PEI [71]. All transfected wells were checked the next day for expression of the sensor by presence of basal cpeGFP fluorescence. […] Wells were selected for integration beginning at 4 days post transfection with […] Puromycin (Gibco #A11138-03). Selection was continued throughout all passages of the stable line. Cells were transferred to T25 (25 cm^2) tissue culture flasks after 10 to 14 days of selection.
Assay Procedure: The DMEM solution was removed from the T25 flat-sided cell culture flask by decantation. […] A total of 7 mL of fresh DMEM was added, and cells were gently pipetted to remove any remaining cells from the flask wall. The total volume (10 mL) was transferred to a 15 mL Falcon tube and centrifuged at 800× g for 4 min at 23 °C. Upon completion of centrifugation, the supernatant was removed and discarded, leaving behind a small pellet of cells that were resuspended in 4 mL of fresh DMEM. The cell suspension was mixed in a 1:1 ratio with 0.4% TrypanBlue ([…] each) and […] solution was added to each side of a Countess Cell Counting Chamber and inserted into the Countess II Automated Cell Counter (Thermo Fisher, Waltham, MA, USA). The concentration of cells as adjusted to 0.7–1.0 million cells/mL with DMEM complete media and […] was added to the desired wells of a clear bottom black plastic tissue culture treated 96-well plate. The plate was incubated at 37 °C and 8% CO2 for a 24–48 h period. After incubation, the […] DMEM buffer was removed and replaced with […] of DPBS buffer containing calcium and magnesium (Gibco #14040-133). After the addition of the DPBS buffer, a baseline reading of the cells was taken using the PHERAstar FSX microplate reader (BMG/Labtech, Cary, NC, USA) to establish the F0 or initial fluorescence (see Figure 1A,B).
(§2) When running the assay for an agonist, […] of the compound and […] of additional DPBS buffer was added to the wells. A concentration curve was made for the modulator with the final concentrations in the wells holding the cells ranging from 1 pM to 10 mM with 1% DMSO BSA in a total volume of 150 mL. […] In either assay, the cannabinoid ligands were added, followed by incubation of the compound on the cells at 37 °C for 5 min before taking a fluorescence reading using the PHERAstar FSX microplate reader equipped with a GFP filter cube module (Ex. 485 nm/Em. 520 nm). The recorded values were the F or final fluorescence.
For reported allosteric modulators, the binding assay was modified to test the ligand for basal activity, followed by the addition of the agonist, similar to the antagonist assay.

GRABeCB2.0 sensor [4] = biological target: T1, GRABeCB2.0 sensor; format: cell-based; conditions: for EC50: HEK293 cells, without BSA, ΔF/F0 4-5 min, read-out: EC50 at inducing GRABeCB2.0 fluorescent signal; for Effect on GRABeCB2.0 basal fluorescence: no agonist
Excerpt: as §1
Assay Procedure: The DMEM solution was removed from the T25 flat-sided cell culture flask by decantation. […] A total of 7 mL of fresh DMEM was added, and cells were gently pipetted to remove any remaining cells from the flask wall. The total volume (10 mL) was transferred to a 15 mL Falcon tube and centrifuged at 800× g for 4 min at 23 °C. […] After the addition of the DPBS buffer, a baseline reading of the cells was taken using the PHERAstar FSX microplate reader (BMG/Labtech, Cary, NC, USA) to establish the F0 or initial fluorescence (see Figure 1A,B).
as §2, with “wells.” for “wells. A concentration curve was made for the modulator with the final concentrations in the wells holding the cells ranging from 1 pM to 10 mM with 1% DMSO BSA in a total volume of 150 mL.”
Statistical Methods: All GRABeCB2.0 fluorescent signals (in cases noted) are expressed as normalized ΔF/F0 as calculated for the fluorescence assay in the PHERAstar FSX Plate reader.

[5] = read-out: GRABeCB2.0 IC50 0.5 mg/mL BSA
[6] = reported, read-out: binding Ki (reported)

T1 sequence (P21554 whole entry S383T, looked up, form open): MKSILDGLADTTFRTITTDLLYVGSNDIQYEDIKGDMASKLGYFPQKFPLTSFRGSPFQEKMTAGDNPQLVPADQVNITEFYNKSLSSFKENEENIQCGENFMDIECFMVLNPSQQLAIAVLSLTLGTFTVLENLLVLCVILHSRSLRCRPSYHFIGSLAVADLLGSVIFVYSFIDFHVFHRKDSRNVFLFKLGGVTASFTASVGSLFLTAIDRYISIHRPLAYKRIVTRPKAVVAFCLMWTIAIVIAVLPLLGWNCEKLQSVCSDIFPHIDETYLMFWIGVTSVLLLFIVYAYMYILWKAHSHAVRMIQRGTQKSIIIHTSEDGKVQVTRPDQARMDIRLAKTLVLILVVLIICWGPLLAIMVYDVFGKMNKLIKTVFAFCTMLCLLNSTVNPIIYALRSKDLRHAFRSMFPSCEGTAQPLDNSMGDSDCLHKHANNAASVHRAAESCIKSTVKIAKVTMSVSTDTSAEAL

In the case of `CCCCC/C=C\C/C=C\C/C=C\C/C=C\CCCC(=O)NCCCl` [ACEA, (5Z,8Z,11Z,14Z)-N-(2-chloroethyl)icosa-5,8,11,14-tetraenamide], the Ki (CB1R; Supplementary Table 1, # literature reported values, read-out: CB1R wild-type binding Ki) is listed as 1.4 nM, the Ki (CB1R; read-out: Ki for CB1 receptor) is listed as 1.5 to 5 nM and the EC50 (CB1 receptor; read-out: reported EC50 for the CB1 receptor) is listed as 51 nM.
For `C=C(C)[C@@H]1CCC(C)=C[C@H]1c1c(O)cc(CCCCC)cc1O` [CBD, cannabidiol], the “Effect on basal GRABeCB2.0 fluorescent signal (reported)” value (GRABeCB2.0 sensor [1]) is given as “did not affect basal GRABeCB2.0 fluorescent signal”.
For `O=[N+]([O-])C[C@H](c1ccccc1)c1c(-c2ccccc2)[nH]c2ccccc12` [GAT228], the “Effect on CP55940 fluorescence signal/maximal fluorescence” value (GRABeCB2.0 sensor [2]) was “did not shift the fluorescence signal”.
With `O=[N+]([O-])C[C@@H](c1ccccc1)c1c(-c2ccccc2)[nH]c2ccccc12` [GAT229] the “Effect on CP55940-activated GRABeCB2.0 fluorescence” value (GRABeCB2.0 sensor [3]) was “more potent enhancer of sensor fluorescence than GAT228”, the “Effect on CP55940 fluorescence signal/maximal fluorescence” value (GRABeCB2.0 sensor [2]) was “increased the maximal fluorescence” and the “apparent α (Schild-like analysis)” value (GRABeCB2.0 sensor [2]; range of CP55940 concentrations) was greater than 1.
In the case of `CC(C)[C@H](N=C(NS(=O)(=O)c1ccc(Cl)cc1)N1C[C@H](c2ccccc2)C(c2ccc(Cl)cc2)=N1)C(N)=O` [JD5037], the IC50 (GRABeCB2.0 sensor [3]; read-out: GRABeCB2.0 IC50) is given as 148 ± 12 nM, the IC50 (GRABeCB2.0 sensor [3]; [5]) is given as 29 ± 3.5 nM and the Ki (CB1R; read-out: binding Ki on CB1R) is given as 0.5 nM.
For `C/C(N)=N\C(=N/S(=O)(=O)c1ccc(C(F)(F)F)cc1)N1C[C@H](c2ccccc2)C(c2ccc(Cl)cc2)=N1` [MRI-1867], the IC50 (GRABeCB2.0 sensor [3]; read-out: GRABeCB2.0 IC50) is listed as 105 ± 5.4 nM, the IC50 (GRABeCB2.0 sensor [3]; [5]) is listed as 90 ± 5 nM and the Ki (CB1R; [6]) is listed as 2.6 nM. The IC50 (CB1 receptor; reported, read-out: functional potency IC50 (reported)) was 40 nM.
For `CC(=O)NC(N)=NC(=NS(=O)(=O)c1ccc(C(F)(F)F)cc1)N1C[C@H](c2ccccc2)C(c2ccc(Cl)cc2)=N1` [MRI-1891], the Ki (CB1R; [6]) is listed as 0.5 nM and the IC50 (CB1 receptor; printed after 'bias toward inhibition of the β-arrestin pathway, over G-protein signaling pathway', read-out: IC50 (reported)) is listed as 6 nM.
With `CC(=O)OCCn1c(C)c(C)s/c1=N\C(=O)C1C(C)(C)C1(C)C` [MRI-2594] the EC50 (GRABeCB2.0 sensor [4]) was 527 ± 27 nM.
`CC(=O)OCCn1c(=NC(=O)C2C(C)(C)C2(C)C)sc2cc(C)ccc21` [MRI-2687] gave an EC50 (GRABeCB2.0 sensor [4]) of 1300 nM.
With `CCc1c(C(=O)NCCc2ccc(N3CCCCC3)cc2)[nH]c2ccc(Cl)cc12` [ORG27569] the “Effect on GRABeCB2.0 basal fluorescence” value (GRABeCB2.0 sensor [4]) was “did not significantly alter basal fluorescence”, the “Effect on CP55940-activated GRABeCB2.0 fluorescence” value (GRABeCB2.0 sensor [3]) was “void of any concentration-dependent effects” and the IC50 (GRABeCB2.0 sensor [3]; read-out: IC50 as weak antagonists (normalized curve)) was 787 nM.
For `CCNC1(C(N)=O)CCN(c2ncnc3c2nc(-c2ccccc2Cl)n3-c2ccc(Cl)cc2)CC1` [Otenabant], the Ki (CB1R; read-out: binding Ki for CB1R) is listed as 0.7 nM and the IC50 (CB1 receptor; read-out: reported IC50) is listed as […].
With `CC(=O)[C@H]1CC[C@H]2[C@@H]3CC=C4C[C@@H](O)CC[C@]4(C)[C@H]3CC[C@]12C` [Pregnenolone] the “Effect on GRABeCB2.0 basal fluorescence” value (GRABeCB2.0 sensor [4]) was “did not significantly alter basal fluorescence”, the “Effect on CP55940-activated GRABeCB2.0 fluorescence” value (GRABeCB2.0 sensor [3]) was “void of any concentration-dependent effects” and the “Effect on 2-AG-activated GRABeCB2.0 fluorescence” value (GRABeCB2.0 sensor [3]; 20 μM 2-AG) was “this behavior could be replicated”.
With `CC(=O)NC(=N)NC(=NS(=O)(=O)c1ccc(Cl)cc1)N1C[C@@H](c2ccccc2)C(c2ccc(Cl)cc2)=N1` [R-MRI-1776] the “CB1 binding of R-enantiomers on the sensor” value (GRABeCB2.0 sensor [3]) was “weak CB1 binding”.
With `CC(=O)NC(=N)NC(=NS(=O)(=O)c1ccc(C(F)(F)F)cc1)N1C[C@@H](c2ccccc2)C(c2ccc(Cl)cc2)=N1` [R-MRI-1891] the “CB1 binding of R-enantiomers on the sensor” value (GRABeCB2.0 sensor [3]) was “weak CB1 binding”.
For `C[C@H](NC(=O)C(C)(C)Oc1ccc(C(F)(F)F)cn1)[C@@H](Cc1ccc(Cl)cc1)c1cccc(C#N)c1` [Taranabant], the Ki (CB1R; read-out: reported Ki) is given as 0.13 nM.
For Pregnenolone sulfate, the “Effect on CP55940-activated GRABeCB2.0 fluorescence” value (GRABeCB2.0 sensor [3]) was “extinguished CP fluorescence but showed no concentration-dependent effects”.

Reference: article PMC11084632, “Pharmacological Evaluation of Cannabinoid Receptor Modulators Using GRABeCB2.0 Sensor” (International Journal of Molecular Sciences, 2024)
